Test results taken from BindingDB's records for doi:10.1021/acschembio.6b00720 (University of Michigan, 2016).

Columns and labels:
[1] = molecular target: Acyl-protein thioesterase 2 [S122A] (Homo sapiens, UniProt O95372, S122A); test: Fluorescence Binding Assays; conditions: 25 °C
[2] = molecular target: T1, Acyl-protein thioesterase 2 (Homo sapiens, UniProt O95372); test: Fluorescence Binding Assays; conditions: 25 °C
[3] = molecular target: Acyl-protein thioesterase 2 [L78I,A85S,P86Q,H152R,R153A,A154S] (Homo sapiens, UniProt O95372, A154S/A85S/H152R/L78I/P86Q/R153A); test: Steady-State Kinetic Assays; conditions: pH 6.5
Chain of Acyl-protein thioesterase 2 [L78I,A85S,P86Q,H152R,R153A,A154S] (O95372 whole entry L78I/A85S/P86Q/H152R/R153A/A154S): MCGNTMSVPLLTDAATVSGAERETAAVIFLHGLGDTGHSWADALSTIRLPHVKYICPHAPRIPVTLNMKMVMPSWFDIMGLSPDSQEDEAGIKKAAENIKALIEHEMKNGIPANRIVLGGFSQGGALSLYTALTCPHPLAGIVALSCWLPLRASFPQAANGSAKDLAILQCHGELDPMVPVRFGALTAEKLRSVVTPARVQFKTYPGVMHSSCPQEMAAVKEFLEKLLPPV
Method: (§1) Enzymes were diluted to 10 nM in PBS pH 6.5 (adjusted with sodium acetate) supplemented with 0.1 g/L pluronic F127 (Sigma). Varying concentrations of resorufin acetate (Sigma) in DMSO were added as 5 μL aliquots to clear-bottom 96-well plates (Greiner bio-one). Using a multi-channel pipette, 95 μL of enzyme was added to each well and quickly mixed by pipetting up and down several times. Each enzyme was assayed in 2 separate runs, each with 4 replicates per substrate concentration and 4 replicates of catalytic-dead enzyme.

[4] = molecular target: Acyl-protein thioesterase 2 [L78I,A85S,P86Q] (Homo sapiens, UniProt O95372, A85S/L78I/P86Q); test: Steady-State Kinetic Assays; conditions: pH 6.5
Chain of Acyl-protein thioesterase 2 [L78I,A85S,P86Q] (O95372 whole entry L78I/A85S/P86Q): as the sequence (O95372 whole entry L78I/A85S/P86Q/H152R/R153A/A154S) above, with R152H, A153R, S154A counted along it
Method: as §1

[5] = molecular target: Acyl-protein thioesterase 2 [L78I,A85S] (Homo sapiens, UniProt O95372, A85S/L78I); test: Steady-State Kinetic Assays; conditions: pH 6.5
Chain of Acyl-protein thioesterase 2 [L78I,A85S] (O95372 whole entry L78I/A85S): as the sequence (O95372 whole entry L78I/A85S/P86Q/H152R/R153A/A154S) above, with Q86P, R152H, A153R, S154A counted along it
Method: as §1

[6] = molecular target: Acyl-protein thioesterase 2 [H152R] (Homo sapiens, UniProt O95372, H152R); test: Steady-State Kinetic Assays; conditions: pH 6.5
Chain of Acyl-protein thioesterase 2 [H152R] (O95372 whole entry H152R): as the sequence (O95372 whole entry L78I/A85S/P86Q/H152R/R153A/A154S) above, with I78L, S85A, Q86P, A153R, S154A counted along it
Method: as §1

[7] = molecular target: T1, Acyl-protein thioesterase 2; test: Steady-State Kinetic Assays; conditions: pH 6.5
Method: as §1

[8] = molecular target: Acyl-protein thioesterase 2 [M178L] (Homo sapiens, UniProt O95372, M178L); test: Steady-State Kinetic Assays; conditions: pH 6.5
Chain of Acyl-protein thioesterase 2 [M178L] (O95372 whole entry M178L): as the sequence (O95372 whole entry L78I/A85S/P86Q/H152R/R153A/A154S) above, with I78L, S85A, Q86P, R152H, A153R, S154A, M178L counted along it
Method: as §1

[9] = molecular target: Acyl-protein thioesterase 2 [P86Q] (Homo sapiens, UniProt O95372, P86Q); test: Steady-State Kinetic Assays; conditions: pH 6.5
Chain of Acyl-protein thioesterase 2 [P86Q] (O95372 whole entry P86Q): as the sequence (O95372 whole entry L78I/A85S/P86Q/H152R/R153A/A154S) above, with I78L, S85A, R152H, A153R, S154A counted along it
Method: as §1

[10] = molecular target: Acyl-protein thioesterase 2 [L78I] (Homo sapiens, UniProt O95372, L78I); test: Steady-State Kinetic Assays; conditions: pH 6.5
Chain of Acyl-protein thioesterase 2 [L78I] (O95372 whole entry L78I): as the sequence (O95372 whole entry L78I/A85S/P86Q/H152R/R153A/A154S) above, with S85A, Q86P, R152H, A153R, S154A counted along it
Method: as §1

[11] = molecular target: Acyl-protein thioesterase 1 [I75L] (Homo sapiens, UniProt O75608, I75L); test: Steady-State Kinetic Assays; conditions: pH 6.5
Chain of Acyl-protein thioesterase 1 [I75L] (O75608 whole entry I75L): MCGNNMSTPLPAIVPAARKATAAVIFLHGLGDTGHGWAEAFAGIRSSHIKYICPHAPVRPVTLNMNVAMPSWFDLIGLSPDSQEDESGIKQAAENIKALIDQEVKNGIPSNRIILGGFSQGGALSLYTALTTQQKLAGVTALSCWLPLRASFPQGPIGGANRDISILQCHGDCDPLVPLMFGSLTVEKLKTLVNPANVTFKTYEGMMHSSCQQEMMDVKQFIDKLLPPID
Method: as §1

[12] = molecular target: Acyl-protein thioesterase 1 [I75L,S82A,Q83P,R149H,A150R,S151A] (Homo sapiens, UniProt O75608, A150R/I75L/Q83P/R149H/S151A/S82A); test: Steady-State Kinetic Assays; conditions: pH 6.5
Chain of Acyl-protein thioesterase 1 [I75L,S82A,Q83P,R149H,A150R,S151A] (O75608 whole entry I75L/S82A/Q83P/R149H/A150R/S151A): as the sequence (O75608 whole entry I75L) above, with S82A, Q83P, R149H, A150R, S151A counted along it
Method: as §1

[13] = molecular target: Acyl-protein thioesterase 1 [I75L,S82A] (Homo sapiens, UniProt O75608, I75L/S82A); test: Steady-State Kinetic Assays; conditions: pH 6.5
Chain of Acyl-protein thioesterase 1 [I75L,S82A] (O75608 whole entry I75L/S82A): as the sequence (O75608 whole entry I75L) above, with S82A counted along it
Method: as §1

[14] = molecular target: Acyl-protein thioesterase 1 [Q83P] (Homo sapiens, UniProt O75608, Q83P); test: Steady-State Kinetic Assays; conditions: pH 6.5
Chain of Acyl-protein thioesterase 1 [Q83P] (O75608 whole entry Q83P): as the sequence (O75608 whole entry I75L) above, with L75I, Q83P counted along it
Method: as §1

[15] = molecular target: Acyl-protein thioesterase 1 [I75L,S82A,Q83P] (Homo sapiens, UniProt O75608, I75L/Q83P/S82A); test: Steady-State Kinetic Assays; conditions: pH 6.5
Chain of Acyl-protein thioesterase 1 [I75L,S82A,Q83P] (O75608 whole entry I75L/S82A/Q83P): as the sequence (O75608 whole entry I75L) above, with S82A, Q83P counted along it
Method: as §1

[16] = molecular target: Acyl-protein thioesterase 1 [L176M] (Homo sapiens, UniProt O75608, L176M); test: Steady-State Kinetic Assays; conditions: pH 6.5
Chain of Acyl-protein thioesterase 1 [L176M] (O75608 whole entry L176M): as the sequence (O75608 whole entry I75L) above, with L75I, L176M counted along it
Method: as §1

[17] = molecular target: Acyl-protein thioesterase 1 (Homo sapiens, UniProt O75608); test: Steady-State Kinetic Assays; conditions: pH 6.5
Chain of Acyl-protein thioesterase 1 (O75608 whole entry): as the sequence (O75608 whole entry I75L) above, with L75I counted along it
Method: as §1

T1 sequence (O95372 whole entry): as the sequence (O95372 whole entry L78I/A85S/P86Q/H152R/R153A/A154S) above, with I78L, S85A, Q86P, R152H, A153R, S154A counted along it
Chain of Acyl-protein thioesterase 2 [S122A] (O95372 whole entry S122A): as the sequence (O95372 whole entry L78I/A85S/P86Q/H152R/R153A/A154S) above, with I78L, S85A, Q86P, S122A, R152H, A153R, S154A counted along it

O=C1C=CC2C(=C1)Oc1cc(O)ccc1C2c1cc(C(=O)NCCOCCOCCOCCn2cc(COc3ccc(N4CCN(C(=O)c5cc6c(s5)-c5ccccc5S(=O)(=O)C6)CC4)cc3)nn2)ccc1C(=O)O (stereo not drawn)
Kd [1]: 770 nM
Kd [2]: 1020 nM

COc1ccc(N2CCN(C(=O)c3cc4c(s3)-c3ccccc3SC4)CC2)cc1 [ML349-thioether]
IC50 [1]: > 100000 nM
Kd [1]: > 10000 nM
IC50 [2]: > 100000 nM
Kd [2]: > 10000 nM

O=C(CN1CCN(C(=O)c2ccco2)CC1)Nc1cc(C(F)(F)F)ccc1Cl [ML348]
Ki [3]: 430 nM
Ki [4]: 3400 nM
Ki [5]: 6200 nM
Ki [6]: > 10000 nM
Ki [7]: > 10000 nM
Ki [8]: > 10000 nM
Ki [9]: > 10000 nM
Ki [10]: 5800 nM

COc1ccc(N2CCN(C(=O)c3cc4c(s3)-c3ccccc3S(=O)(=O)C4)CC2)cc1 [ML349]
IC50 [1]: 1000 nM
Kd [1]: 160 nM
IC50 [2]: 1100 nM
Kd [2]: 240 nM
Ki [3]: > 10000 nM
Ki [4]: > 10000 nM
Ki [11]: 370 nM
Ki [12]: 180 nM
Ki [5]: > 10000 nM
Ki [13]: 280 nM
Ki [6]: 660 nM
Ki [14]: > 10000 nM
Ki [7]: 120 nM
Ki [8]: 200 nM
Ki [9]: 130 nM
Ki [10]: > 10000 nM
Ki [15]: 1200 nM
Ki [16]: > 10000 nM
Ki [17]: > 10000 nM
